# Laboratory results from PMC9081605, “A High-Throughput Toxicity Screen of 42 Per- and Polyfluoroalkyl Substances (PFAS) and Functional Assessment of Migration and Gene Expression in Human Placental Trophoblast Cells” (Frontiers in Toxicology, 2022).
# Columns and labels:
# Format in all cases: cell-based, human
# JEG-3 cells [1] = assay: CellTiter-Glo luminescent cell viability assay (HTTS); details: for Viability ↓, lowest concentration at which the mean response value exceeded the mean control value ± 2*SD (rough binning): decrease; for cell viability relative to vehicle control (rough binning): after 24 h, in at least one concentration
# How it was run: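 JEG-3 cells (2,500/well) adhered overnight, then exposed 24 h to PFAS (methanol stocks; vehicle 2.5% methanol, top concentration 500 µM). Viability read by CellTiter-Glo ATP luminescence in the same wells as mitochondrial membrane potential; wells with 0 h confluence <20% or >80% excluded.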
# JEG-3 cells [2] = assay: Proliferation, change in confluence 0-24 h (IncuCyte Zoom, HTTS); details: for cellular proliferation relative to vehicle control (rough binning): after 24 h, in at least one concentration; for Prolif ↓, lowest concentration at which the mean response value exceeded the mean control value ± 2*SD (rough binning): decrease
# How it was run: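 Confluence measured by automated image masking at 0 h and 24 h after dosing; proliferation = 24 h minus baseline confluence. JEG-3 seeded at 2,500 cells/well, ~30–50% baseline confluence, exposed 24 h to PFAS up to 500 µM in medium with 2.5% methanol vehicle; 37°C, 5% CO2.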
# JEG-3 cells [3] = assay: Mitochondrial membrane potential, JC-10 assay (HTTS); details: for MMP ↓, lowest concentration at which the mean response value exceeded the mean control value ± 2*SD (rough binning): 24 h, decrease; for EC50: four-parameter fit, estimates meeting inclusion criteria; for MMP relative to vehicle control (rough binning): after 24 h, in at least one concentration
# How it was run: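 JEG-3 cells seeded at 2,500 per well were exposed to PFAS for 24 h at 37 °C, with 2.5% methanol vehicle. After a PBS wash, 20 μM JC-10 was added for 1 h at 37 °C. Membrane potential was taken as the green (490/525 nm) to red (540/590 nm) fluorescence ratio.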
# [4] = JEG-3 cells, 24 h exposure, four-parameter fit, estimates meeting inclusion criteria, read-out: Viability EC50 ± SD
# [5] = JEG-3 cells, 24 h exposure, four-parameter fit, estimates meeting inclusion criteria, read-out: Proliferation EC50 ± SD
# [6] = JEG-3 cells, 24 h exposure, read-out: MMP EC50 ± SD
# [7] = Homo sapiens, JEG-3, 24 h, read-out: Viability EC50 ± SD, JEG-3 cells, 24 h exposure, four-parameter fit, estimates meeting inclusion criteria
# [8] = Homo sapiens, JEG-3, 24 h, read-out: Proliferation EC50 ± SD, JEG-3 cells, 24 h exposure, four-parameter fit, estimates meeting inclusion criteria
# [9] = Homo sapiens, JEG-3, 24 h, read-out: MMP EC50 ± SD, JEG-3 cells, 24 h exposure
Compound,"Viability ↓, lowest concentration at which the mean response value exceeded the mean control value ± 2*SD (rough binning) (JEG-3 cells [1]; JEG-3 cells, 24 h)",cell viability relative to vehicle control (rough binning) (JEG-3 cells [1]),cellular proliferation relative to vehicle control (rough binning) (JEG-3 cells [2]),EC50 (JEG-3 cells [1]; [4]),"Prolif ↓, lowest concentration at which the mean response value exceeded the mean control value ± 2*SD (rough binning) (JEG-3 cells [2]; JEG-3 cells, 24 h)",EC50 (JEG-3 cells [2]; [5]),"MMP ↓, lowest concentration at which the mean response value exceeded the mean control value ± 2*SD (rough binning) (JEG-3 cells [3]; JEG-3 cells)",EC50 (JEG-3 cells [3]; [6]),MMP relative to vehicle control (rough binning) (JEG-3 cells [3]),EC50 (JEG-3 cells [1]; [7]),EC50 (JEG-3 cells [2]; [8]),EC50 (JEG-3 cells [3]; [9]),also measured
N.O=C(O)C(F)(OC(F)(F)C(F)(F)C(F)(F)F)C(F)(F)F (stereo not drawn) [Ammonium perfluoro-2-methyl-3-oxahexanoate],350 µM,reduced cell viability,increased cellular proliferation,,,,,,,,,,"Prolif ↑, lowest concentration at which the mean response value exceeded the mean control value ± 2*SD (rough binning) (JEG-3 cells [2]; JEG-3 cells, 24 h, increase): 50 µM"
O=C(O)C(F)(F)C(F)(F)C(F)(F)C(F)(F)C(F)(F)C(F)(F)C(F)(F)C(F)(F)F [Perfluorononanoic acid],350 µM,reduced cell viability,reduced cellular proliferation,333 ± 10.3 µM,300 µM,326 ± 5.5 µM,300 µM,305 ± 13.6 µM,reduced MMP,,,,
NS(=O)(=O)C(F)(F)C(F)(F)C(F)(F)C(F)(F)C(F)(F)C(F)(F)C(F)(F)C(F)(F)F [Perfluorooctanesulfonamide],,,,,,,,,,175 ± 4.9 µM,160 ± 87.8 µM,227 ± 370 µM,"EC50 (JEG-3 cells [1]; Homo sapiens, JEG-3, 24 h, read-out: viability EC50 ± SE, JEG-3 cells, 24 h): 176 ± 5 µM; EC50 (JEG-3 cells [1]; read-out: Viability EC50 ± SD, JEG-3 cells, 24 h exposure, four-parameter fit, estimates meeting inclusion criteria): 176 ± 4.9 µM; EC50 (JEG-3 cells [2]; Homo sapiens, JEG-3, 24 h, read-out: proliferation EC50 ± SE, JEG-3 cells, 24 h): 160 ± 90 µM"
O=S(=O)(O)C(F)(F)C(F)(F)C(F)(F)C(F)(F)C(F)(F)C(F)(F)C(F)(F)C(F)(F)F [Perfluorooctanesulfonic acid],300 µM,reduced cell viability,reduced cellular proliferation,291 ± 9.1 µM,250 µM,294 ± 5.8 µM,350 µM,353 ± 6.7 µM,reduced MMP,,,,"EC50 (JEG-3 cells [1]; JEG-3 cells, 24 h exposure, four-parameter fit, estimates meeting inclusion criteria, listed as PFOS, read-out: Viability EC50 ± SD): 291 µM; EC50 (JEG-3 cells [2]; JEG-3 cells, 24 h exposure, four-parameter fit, estimates meeting inclusion criteria, listed as PFOS, read-out: Proliferation EC50 ± SD): 294 µM; EC50 (JEG-3 cells [3]; JEG-3 cells, 24 h exposure, listed as PFOS, read-out: MMP EC50 ± SD): 353 µM"
O=C(O)C(F)(F)C(F)(F)C(F)(F)C(F)(F)C(F)(F)C(F)(F)C(F)(F)F [Perfluorooctanoic acid],,,reduced cellular proliferation,,,,,,reduced MMP,358 ± 16.9 µM,344 ± 12.2 µM,360 ± 18 µM,"Viability ↑, lowest concentration at which the mean response value exceeded the mean control value ± 2*SD (rough binning) (JEG-3 cells [1]; JEG-3 cells, 24 h, increase): 200 µM; minimal effective concentration (JEG-3 cells [2]; Homo sapiens, JEG-3, 24 h, read-out: Prolif ↓, lowest concentration at which the mean response value exceeded the mean control value ± 2*SD (rough binning)): 350 µM; minimal effective concentration (JEG-3 cells [3]; Homo sapiens, JEG-3, 24 h, read-out: MMP ↓, lowest concentration at which the mean response value exceeded the mean control value ± 2*SD (rough binning)): 450 µM"
